Like-named read-outs stand apart in the source and are kept apart here.

One series deals with Hs294T. The series is described as follows: Growth inhibition assay (SRB assay), melanoma cell line Hs294T. Type of series: cell-based, human. Conditions: Homo sapiens, Hs 294T, 72 h, mean ± SD. The procedure: (§1) Three human cancer cell lines were used to evaluate the antiproliferative activity of the obtained compounds: melanoma cell line Hs294T, pancreatic tumor cell line MIA PaCa-2, and lung tumor cell line NCI-H1581. The normal mouse fibroblasts cell line (BALB/3T3 clone A31) was selected as reference. All these lines were purchased from the ATCC (American Type Culture Collection, Rockville, MD, USA). NCI-H1581 cells were grown in RPMI 1640 with GlutaMax medium (Gibco, Thermo Fisher Scientific, Leicestershire, UK) with 5% fetal bovine serum (FBS; HyClone, GE Healthcare, Logan, UT, USA). Hs294T and BALB/3T3 cells were grown in Dulbecco’s Modified Eagle Medium (DMEM; Gibco, Thermo Fisher Scientific, Leicestershire, UK) supplemented with 2 mM L-glutamine and 10% FBS (HyClone, GE Healthcare, Logan, UT, USA). MIA PaCa-2 cells were grown in DMEM (Gibco, Thermo Fisher Scientific, Leicestershire, UK) supplemented with 2 mM L-glutamine, 2.5% Horse Serum (Gibco, Thermo Fisher Scientific, Leicestershire, UK), and 10% FBS (HyClone, GE Healthcare, Logan, UT, USA). All culture media were supplemented with antibiotics: 100 U/mL penicillin (Polfa Tarchomin SA, Warsaw, Poland) and 100 µg/mL streptomycin (Sigma-Aldrich Chemie GmbH, Steinheim, Germany); cells were grown at 37 °C in a humid atmosphere with 5% CO2.
(§2) Twenty-four hours prior to the addition of the tested compounds, 2000 cells per well of Balb/3T3, MIA PaCa-2, and Hs294T cell lines and 2500 cells of NCI-H1581 cell line were seeded in 384-well plates (Greiner Bio-One, Kremsmünster, Austria) in an appropriate medium. The studied compounds were added to the cells at 8 different concentrations in a series of dilutions from 100 to 0.00001 µg/mL for 72 h. Cisplatin was applied as a reference compound (Teva Pharmaceuticals, Warsaw, Poland). DMSO (Sigma-Aldrich Chemie GmbH, Steinheim, Germany) was used as solvent control. The DMSO concentrations corresponded to the solvent concentrations in the tested compound solutions. Then, 30 µL per well of ice-cold 50% TCA (trichloroacetic acid, Avantor, Gliwice, Poland) was added to the cells. After one hour of incubation at room temperature (RT) cells were washed five times with water and stained with 0.4% SRB (sulforhodamine B, Sigma-Aldrich Chemie GmbH, Steinheim, Germany). Twenty-five microliters per well of 0.4% solution of SRB in 1% acetic acid (Avantor, Gliwice, Poland) was applied. After 0.5 h of incubation at RT, the unbound dye was washed out with 1% acetic acid. The bound dye in each well was dissolved in 70 µl of 10 mM TRIS (Tris base, Sigma-Aldrich, Chemie GmbH, Steinheim, Germany). A microplate reader (BioTek Synergy H4, Swindon, UK) with Gen5 software was used to read the absorbance at 540 nm. The results are presented as mean IC50 values (concentration of the compound that inhibits cell proliferation by 50%) ± standard deviation. Half-maximal inhibitory concentration (IC50) values were calculated using the Prolab-3 system based on Cheburator 0.4 [22]. Each experiment was performed in triplicate, and three independent repetitions were made for each experiment. Raw data and IC50 values were placed in the supplementary materials.
For orientation: Sulforhodamine B stains cellular protein and so reports cell mass.

The subject of another series is MIA PaCa-2. Put plainly: Growth inhibition assay (SRB assay), pancreatic tumor cell line MIA PaCa-2. The format is cell-based, human. The following applies: Homo sapiens, mean ± SD. On the procedure: as §1, §2
Another series relates to NCI-H1581. The series is described as follows: Growth inhibition assay (SRB assay), lung tumor cell line NCI-H1581. The format is cell-based, human. The following applies: for IC50: Homo sapiens, NCI-H1581, 72 h, 72 h, SRB, mean ± SD; for SI (Selectivity Index): SI = IC50 for normal cell line BALB/3T3 / IC50 for NCI-H1581. On the procedure:
as §1, §2

Another series concerns BALB/3T3 clone A31. Put plainly: Growth inhibition assay (SRB assay), normal fibroblasts BALB/3T3 clone A31. The format is cell-based, mouse. The following applies: mean ± SD. On the procedure: as §1, §2
Series [1] in a line: Solvability in DMSO (table footnote). The format is physicochemical. The arrangement: key to solvability in dimethyl sulfoxide (DMSO): **: poor or no solvability in dimethyl sulfoxide (DMSO); key to solvability in DMSO: [b]: poor or no solvability in DMSO. The following applies: for solvability in DMSO: supplement.
The mark [2] stands for this setting: supplement, read-out: IC50 Hs294T (raw data).
Setting [3] is: MIA PaCa-2, 72 h, read-out: IC50 MIA PaCa-2.
[4] abbreviates: MIA PaCa-2, supplement, 72 h, read-out: IC50 MIA PaCa-2 (raw data).
The mark [5] stands for this setting: supplement, read-out: IC50 NCI-H1581 (raw data).
Where [6] appears, read: Mus musculus, BALB/3T3 clone A31, 72 h, normal cell line, read-out: IC50 BALB3T3.
The mark [7] stands for this setting: Mus musculus, BALB/3T3 clone A31, 72 h, supplement, read-out: IC50 BALB3T3 (raw data).
Where [8] appears, read: MIA PaCa-2, supplement, 72 h, read-out: IC50 MIA PaCa-2 (non-rounded data).
Where [9] appears, read: Mus musculus, BALB/3T3 clone A31, 72 h, supplement, read-out: IC50 BALB3T3 (non-rounded data).

The term IC50 denotes the concentration that inhibits the measured activity by half. Regarding `C[C@@H](c1ccccc1)N1C[C@H](n2cc(-c3ccc(-c4cn([C@H]5CN([C@@H](C)c6ccccc6)[C@H]6CC[C@@H]5C6)nn4)cc3)nn2)[C@@H]2CC[C@H]1C2` [Compound 15, 1,4-Bis-(1-((1S,4R,5R)-2-((S)-1-phenylethyl)-2-azabicyclo[3.2.1]octan-4-yl)-1H-1,2,3-triazol-4-yl) benzene], the IC50 in the series on Hs294T (read-out: IC50 Hs294T) was 58.8 ± 4.07 µM; in the series on Hs294T (setting [2]) it was 37.6 ± 2.6 µg/mL; in the series with MIA PaCa-2 (setting [3]) it was 111 ± 9.55 µM; in the series with MIA PaCa-2 (setting [4]), 71.2 ± 6.1 µg/mL; with NCI-H1581 (read-out: IC50 NCI-H1581) it was 6.87 ± 1.46 µM; in the series with NCI-H1581 (setting [5]), 4.39 ± 0.93 µg/mL. The IC50 in the series on BALB/3T3 clone A31 (setting [6]) stood at 59.5 ± 11.7 µM; in the series on BALB/3T3 clone A31 (setting [7]), 38 ± 7.48 µg/mL. Moreover, the “SI (Selectivity Index)” value in the series with NCI-H1581 amounted to 9. The “solvability in dimethyl sulfoxide (DMSO)” value in series [1] was 15 **. For the same molecule, in series [1], the “solvability in DMSO” value was “[b]”.
Regarding `C[C@@H](c1ccccc1)N1C[C@@H](n2cc(-c3ccc(-c4cn([C@@H]5CN([C@@H](C)c6ccccc6)[C@H]6CC[C@@H]5C6)nn4)cc3)nn2)[C@@H]2CC[C@H]1C2` [Compound 14, 1,4-Bis-(1-((1S,4S,5R)-2-((S)-1-phenylethyl)-2-azabicyclo[3.2.1]octan-4-yl)-1H-1,2,3-triazol-4-yl) benzene], the IC50 in the series on Hs294T (read-out: IC50 Hs294T) is 77.3 ± 9.5 µM; in the series with Hs294T (setting [2]) it was 49.4 ± 6.07 µg/mL; with MIA PaCa-2 (setting [3]), over 100 µM; in the series on MIA PaCa-2 (setting [8]), over 100 µM; in the series with MIA PaCa-2 (setting [4]), over 100 µM; in the series on NCI-H1581 (read-out: IC50 NCI-H1581), 20.9 ± 15.2 µM. For the same molecule, the IC50 with NCI-H1581 (setting [5]) was 13.4 ± 9.71 µg/mL; with BALB/3T3 clone A31 (setting [6]), over 100 µM; in the series with BALB/3T3 clone A31 (setting [9]), over 100 µM; with BALB/3T3 clone A31 (setting [7]), over 100 µM. For the same molecule, the “solvability in dimethyl sulfoxide (DMSO)” value in series [1] was 14 **. Besides, the “solvability in DMSO” value in series [1] is “[b]”.
Turning to `C[C@@H](c1ccccc1)N1C[C@@H](n2cc(-c3cccc(-c4cn([C@@H]5CN([C@@H](C)c6ccccc6)[C@H]6CC[C@@H]5C6)nn4)c3)nn2)[C@@H]2CC[C@H]1C2` [Compound 16, 1,3-Bis-(1-((1S,4S,5R)-2-((S)-1-phenylethyl)-2-azabicyclo[3.2.1]octan-4-yl)-1H-1,2,3-triazol-4-yl) benzene], the half-maximal inhibitory concentration (IC50) in the series on Hs294T (read-out: IC50 Hs294T) was over 100 µM; with Hs294T (supplement, read-out: IC50 Hs294T (non-rounded data)) it was over 100 µM; with Hs294T (setting [2]), over 100 µM; with MIA PaCa-2 (setting [3]), over 100 µM; in the series on MIA PaCa-2 (setting [8]) it was over 100 µM; with MIA PaCa-2 (setting [4]), over 100 µM. The concentration for half-maximal inhibition (IC50) with NCI-H1581 (read-out: IC50 NCI-H1581) is 53.9 ± 5.07 µM; with NCI-H1581 (setting [5]) it was 34.5 ± 3.24 µg/mL; in the series with BALB/3T3 clone A31 (setting [6]) it was over 100 µM; in the series on BALB/3T3 clone A31 (setting [9]), over 100 µM; in the series on BALB/3T3 clone A31 (setting [7]), over 100 µM. Also, the “solvability in dimethyl sulfoxide (DMSO)” value in series [1] was 16 **. Also, the “solvability in DMSO” value in series [1] was “[b]”.
As to `C[C@@H](c1ccccc1)N1C[C@H](n2cc(CCCc3cn([C@H]4CN([C@@H](C)c5ccccc5)[C@H]5CC[C@@H]4C5)nn3)nn2)[C@@H]2CC[C@H]1C2` [Compound 11, 1,3-Bis-(1-((1S,4R,5R)-2-((S)-1-phenylethyl)-2-azabicyclo[3.2.1]octan-4-yl)-1H-1,2,3-triazol-4-yl) propane], the IC50 in the series with Hs294T (read-out: IC50 Hs294T) was 9.71 ± 3.08 µM; in the series on Hs294T (setting [2]) it was 5.87 ± 1.86 µg/mL; with MIA PaCa-2 (setting [3]) it was 37.6 ± 5.51 µM; in the series with MIA PaCa-2 (setting [4]) it was 22.7 ± 3.33 µg/mL; in the series with NCI-H1581 (read-out: IC50 NCI-H1581), 4.4 ± 0.61 µM; in the series on NCI-H1581 (setting [5]) it was 2.66 ± 0.37 µg/mL. For the same molecule, the IC50 in the series with BALB/3T3 clone A31 (72 h, normal cell line, read-out: IC50 BALB3T3) came to 26.7 ± 4.76 µM; with BALB/3T3 clone A31 (setting [6]), 26.7 µM; in the series on BALB/3T3 clone A31 (setting [7]) it was 16.2 ± 2.88 µg/mL. In the series on NCI-H1581, the “SI (Selectivity Index)” value is 6. Besides, the “solvability in dimethyl sulfoxide (DMSO)” value in series [1] is 11 **. Besides, in series [1], the “solvability in DMSO” value is “[b]”.
